Assay results as given in patent US4462992A, “Nitroimidazole radiosensitizers for hypoxic tumor cells and compositions thereof” (priority 1982, dated 1984).
Where two headings read alike, the source gives them in different places.

Columns and labels:
in vivo = settings: mouse, ip
Description: Neurotoxicity in mice was determined using mice of strain CDF1. This was carried out by (1) determining the LD50 of each compound in mice and (2) observing the animals for acute neurotoxic symptoms such as convulsions. The drugs were either solubilized or suspended in normal saline and administered intraperitoneally to groups of ten mice. […]

[1] = system: hypoxic cells (Chinese hamster cells line V-79); experiment: Differential toxicity to hypoxic cells at 4 hours; format: cell-based
Description: (§1) Asynchronous monolayers of cultures of Chinese hamster cells line V-79 were employed in all experiments. The monolayers were derived from exponentially growing cultures. Methods of culturing and handling have been reported earlier by Cooke et al, Rad. Res. 65, 152 (1976). The plated cultures were rendered hypoxic in sealed dural containers capable of holding seven petri dishes, by purging with nitrogen (oxygen-free grade) for one hour. Irradiation was carried out by using a cobalt-60 source at a dose rate of approximately 240 rad/min according to the procedure described by Agrawal et al Rad. Res. 78:532 (1979). A dose of 1400 rad was given to hypoxic cells in glass petri dishes in the presence of a given drug concentration (2000 cells/dish). Cell survival was estimated from unirradiated toxic hypoxic cells exposed to the same drug concentration. Complete survival curves were obtained for each compound at the radiation doses of 400 to 3000 rad. The Do value was calculated for each compound and the ratio of the Do value for the hypoxic control cells to the Do value of the hypoxic drug treated cells provided the sensitized enhancement ratio of the corresponding agent.
(§2) To determine toxicity in vitro, glass petri dishes containing approximately 200 Chinese hamster cells/dish were exposed to a range of concentrations of each drug for 2 hours and/or 4 hours at 37° C. Drug concentrations between 10 μM and 0.5 mM were employed initially.

[2] = In vitro cytotoxicity in hypoxic cells (% survival); format: cell-based, Chinese hamster; settings: hamster, v-79 cells; for viability at 2 h, 100 µM / viability at 4 h, 100 µM: 0.1 mM; for viability at 2 h, 500 µM / viability at 4 h, 500 µM: 0.5 mM
Description: as §1
(§3) Cultures were incubated for 6 days at 37° C. in an atmosphere of 5% CO2. The resulting colonies were fixed in absolute ethanol and stained with methylene blue and counted.
as §2

[3] = In vitro cytotoxicity in oxic cells (% survival); format: cell-based, Chinese hamster; settings: hamster, v-79 cells, oxic; for viability at 2 h, 100 µM / viability at 4 h, 100 µM: 0.1 mM
Description: as §1, §3, §2

[4] = system: Chinese hamster cells line V-79; experiment: Radiosensitization (enhancement ratio, cobalt-60 irradiation of hypoxic cells); format: cell-based
Description: as §1, §3

[5] = system: Chinese hamster cells line V-79 (oxic); experiment: In vitro cytotoxicity in oxic cells (% survival); format: cell-based; settings: 4 hours, 240 min
Description: as §1, §3, §2

central nervous system = settings: cited from earlier work
hypoxic tumor cells = settings: cited from earlier work
[6] = 2 hours, read-out: In vitro cytoxicity in hypoxic cells (% survival at 2 hours)
[7] = 4 hours, read-out: In vitro cytoxicity in hypoxic cells (% survival at 4 hours)
[8] = 2 hours, read-out: In vitro cytoxicity in oxic cells (% survival at 2 hours)
[9] = 2 hours, 0.5 mM, read-out: In vitro cytoxicity in oxic cells (% survival at 2 hours)
[10] = 4 hours, read-out: In vitro cytoxicity in oxic cells (% survival at 4 hours)

Row | SMILES | Differential toxicity to hypoxic cells at 4 hours [1] | viability at 2 h, 100 µM [2, 6] | viability at 2 h, 500 µM [2, 6] | viability at 4 h, 100 µM [2, 7] | viability at 4 h, 500 µM [2, 7] | viability at 2 h, 100 µM [3, 8] | viability at 2 h, 500 µM [3, 9] | viability at 4 h, 100 µM [3, 10] | Radiosensitization (enhancement ratio in Chinese hamster cells) ([4]; 0.5 mM) | effectiveness in vivo (hypoxic tumor cells) | also measured
1 | O=[N+]([O-])c1nccn1[C@@H]1C=C[C@H](O)[C@@H](CO)O1 [A, 1(2',3didehydro-2',3dideoxy-D-erythro-hexopyranonyl)-2-nitroimidazole] | Yes | 97.3% | 75.9% | 56.7% | 15.8% | 99% | 90% | 99% | 2.2 |  | LD50 at 24 h (in vivo): 3300 mg/kg; viability at 2 h, 250 µM ([2]; 2 hours, 0.25 mM, read-out: In vitro cytoxicity in hypoxic cells (% survival at 2 hours)): 92%; viability at 2 h, 1000 µM ([2]; 2 hours, 1.0 mM, read-out: In vitro cytoxicity in hypoxic cells (% survival at 2 hours)): 59.6%; viability at 4 h, 250 µM ([2]; 4 hours, 0.25 mM, read-out: In vitro cytoxicity in hypoxic cells (% survival at 4 hours)): 26.7%; viability at 4 h, 1000 µM ([2]; 4 hours, 1.0 mM, read-out: In vitro cytoxicity in hypoxic cells (% survival at 4 hours)): 0%; viability at 2 h, 250 µM ([3]; 2 hours, 0.25 mM, read-out: In vitro cytoxicity in oxic cells (% survival at 2 hours)): 104%; viability at 2 h, 1000 µM ([3]; 2 hours, 1.0 mM, read-out: In vitro cytoxicity in oxic cells (% survival at 2 hours)): 82.4%; viability at 4 h, 250 µM ([3]; 4 hours, 0.25 mM, read-out: In vitro cytoxicity in oxic cells (% survival at 4 hours)): 104%; Radiosensitization (enhancement ratio in Chinese hamster cells) ([4]; 0.25 mM): 2.0
2 | CC(=O)OC[C@H]1O[C@@H](n2ccnc2[N+](=O)[O-])C=C[C@@H]1OC(C)=O [C, 1(4',6di-O--acetyl2',3didehydro-2',3dideoxy-D-erythro-hexopyranosyl)-2-ni roimidazole] | Yes | 104% | 92.6% | 86.6% | 41.1% | 95% | 97% | 101% | 1.6 |  | In vitro cytoxicity in oxic cells (% survival at 4 hours) ([5]; 0.1 mM, 100 µM): 94%; In vitro cytoxicity in oxic cells (% survival at 4 hours) ([5]; 0.5 mM, 500 µM): 88%; viability at 2 h, 10 µM ([3]; 2 hours, 0.01 mM, read-out: In vitro cytoxicity in oxic cells (% survival at 2 hours)): 101%; viability at 2 h, 50 µM ([3]; 2 hours, 0.05 mM, read-out: In vitro cytoxicity in oxic cells (% survival at 2 hours)): 100%; viability at 4 h, 500 µM ([3]; 4 hours, 0.5 mM, read-out: In vitro cytoxicity in oxic cells (% survival at 4 hours)): 103%
3 | COCC(O)Cn1ccnc1[N+](=O)[O-] (stereo not drawn) [N, Misonidazole] | Yes |  |  |  |  |  |  |  |  | effective in vivo | side effects in mice (central nervous system; administered orally): peripheral neuropathy and convulsions in mice; central nervous system toxicity (central nervous system; use in humans): central nervous system toxicity is a limiting factor for their use in humans
4 | Cc1ncc([N+](=O)[O-])n1CCO [O, Metronidazole] | Yes |  |  |  |  |  |  |  |  | effective in vivo | side effects in mice (central nervous system; in vivo, po): peripheral neuropathy and convulsions in mice; central nervous system toxicity (central nervous system; in vivo): central nervous system toxicity is a limiting factor for their use in humans; radiosensitization activity (hypoxic tumor cells; in vivo and in vitro): active both in vivo and in vitro; Radiosensitization (enhancement ratio in Chinese hamster cells) ([4]; 1.0 mM): 1.5
